Reference: ChEMBL document CHEMBL3137667, “[Drug-induced liver injury; fourteenth updated edition of the bibliographic database of liver injuries and related drugs]” (Gastroenterol Clin Biol, 2004)
Where a name gives a salt, the structure may show the parent alone.

Columns and labels:
[1] = Highest frequency of acute liver toxicity observed during clinical trials, expressed as a percentage. [column '% AIGUE' in source]; conditions: human
[2] = human
[3] = human, serum
[4] = human; remark: listed apart in the source
[5] = human; remark: listed apart in the source
[6] = human; remark: listed apart in the source
[7] = Times to onset, minimal and maximal, observed in the indexed observations. [column 'DELAI' in source]; conditions: human
[8] = human, serum; remark: listed apart in the source
[9] = human, serum, 4383 h
[10] = human; remark: listed apart in the source
[11] = Highest frequency of moderate liver toxicity observed during clinical trials, expressed as a percentage. [column '% BIOL' in source]; conditions: human
[12] = human; remark: listed apart in the source
[13] = human; remark: listed apart in the source
[14] = human; remark: listed apart in the source
[15] = human; remark: listed apart in the source
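For Hepatotoxicity (association with vascular disease) in this document: count of indexed literature references reporting vascular liver injury in humans, e.g. peliosis hepatitis, hepatic veno-occlusive disease or Budd-Chiari syndrome.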
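For Hepatotoxicity (benign tumour) in this document: value is a count of indexed literature references citing a benign tumour confirmed by histopathology.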
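For Hepatotoxicity (choleostasis) in this document: human cholestatic liver injury, shown by histopathology or by peak ALT or AST elevation over alkaline phosphatase ratio below 2, value counts indexed literature reports.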
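For Hepatotoxicity (chronic liver disease) in this document: chronic liver injury confirmed by histopathology or persistently raised serum aminotransferase activity beyond 6 months, value given as the count of indexed literature references.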
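For Hepatotoxicity (cirrhosis) in this document: value is a count of indexed literature references reporting cirrhosis confirmed by histopathology.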
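For Hepatotoxicity (cytolytic) in this document: human cytolytic liver injury, shown by histopathology or by a ratio above 5 of peak ALT or AST elevation to alkaline phosphatase elevation, value counts indexed references.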
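For Hepatotoxicity (granulomatous hepatitis) in this document: value is a count of indexed literature references reporting granulomatous liver disease confirmed by histopathology.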
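For Hepatotoxicity (malignant tumour) in this document: malignant tumour confirmed by histopathology, value gives the count of indexed literature references reporting it.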
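For Hepatotoxicity (severe hepatitis) in this document: human clinical data: severe hepatitis, meaning potentially life-threatening liver failure or clinically observed cases, the value counts how many indexed literature references report it.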
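For Hepatotoxicity (steatosis) in this document: steatosis confirmed by histopathology, value is the count of indexed references.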

Compound	Hepatotoxicity (acute) [1] [%]	Hepatotoxicity (steatosis) [2]	Hepatotoxicity (acute) [3]	Hepatotoxicity (malignant tumour) [4]	Hepatotoxicity (cytolytic) [5]	Hepatotoxicity (severe hepatitis) [6]	Hepatotoxicity (time to onset) [7]	Hepatotoxicity (moderate) [8]	Hepatotoxicity (chronic liver disease) [9]	Hepatotoxicity (benign tumour) [10]	Hepatotoxicity (moderate) [11] [%]	Hepatotoxicity (association with vascular disease) [12]	Hepatotoxicity (choleostasis) [13]	Hepatotoxicity (cirrhosis) [14]	Hepatotoxicity (granulomatous hepatitis) [15]	Hepatotoxicity (acute) ([1]; Liver) [%]	Hepatotoxicity (severe hepatitis) ([6]; Liver)	Hepatotoxicity (moderate) ([11]; Liver) [%]
CCCC1O[C@@H]2C[C@H]3[C@@H]4CCC5=CC(=O)C=C[C@]5(C)[C@H]4[C@@H](O)C[C@]3(C)[C@]2(C(=O)CO)O1 (stereo not given in full) [BUDESONIDE]	0	0	1	0	1	0	19 days	0	0	0	0	0	0	0	0			
NS(=O)(=O)c1cc2c(cc1Cl)NC(C(Cl)Cl)NS2(=O)=O (stereo not given) [TRICHLORMETHIAZIDE]	0	0	0	0	0	0	1 week	1	0	0	0	0	0	0	1			
COc1ccc2c(c1)N(C[C@H](C)CN(C)C)c1ccccc1S2 [LEVOMEPROMAZINE]	2.7	0	4	0	1	0	1.2 months - 2 months	2	0	0	4.5	0	3	0	0			
C[C@H]1[C@H](NC(=O)/C(=N\OC(C)(C)C(=O)O)c2csc(N)n2)C(=O)N1S(=O)(=O)O [AZTREONAM]		0	1	0	1		4 days	104	0	0		0	0	0	0	0	0	60
CCCCCCCCCCCCCCCCOP(=O)([O-])OCC[N+](C)(C)C [MILTEFOSINE]	2.2	0	3	0	3	0	2 weeks	5	0	0	55	0	0	0	0			
N[C@@H](Cc1ccc(O)c(O)c1)C(=O)O [LEVODOPA]	3.3	1	4	0	0	0	< 3 months	1	0	0	9	0	1	0	0			
N=C(N)NC(=O)c1nc(Cl)c(N)nc1N [AMILORIDE]	0	0	0	0	0	0	2 weeks - 6 months	2	0	0	1.1	0	0	0	0			
CCNc1cccnc1N1CCN(C(=O)c2cc3cc(OC)ccc3[nH]2)CC1 [ATEVIRDINE MESYLATE]	6.7	0	1	0	0	0	3 weeks	0	0	0	0	0	0	0	0			
NC[C@H]1O[C@H](O[C@H]2[C@H](O)[C@@H](O[C@H]3O[C@H](CO)[C@@H](O)[C@H](N)[C@H]3O)[C@H](N)C[C@@H]2N)[C@H](N)C[C@@H]1O [TOBRAMYCIN]	0	0	1	0	0	0	1 day - 3 weeks	12	0	0	23.5	0	0	0	0			
CC(COc1ccccc1)NN (stereo not given) [PHENOXYPROPAZINE]	0	0	3	0	3	3	1.5 months - 4 months	0	0	0	0	0	0	0	0			
CN(c1nccc(=O)[nH]1)C1CCN(c2nc3ccccc3n2Cc2ccc(F)cc2)CC1 [MIZOLASTINE]	0	0	2	0	2	0	2 months	0	0	0	0	0	0	0	0			
